Measurements from ChEMBL document CHEMBL5465560, “Selectivity Literature for EUbOPEN Chemogenomic Library” (2024).

Experiments:
[1] = molecular target: Tyrosine-protein kinase Blk (Homo sapiens) (UniProt P51451); details: at 10 µM
[2] = molecular target: T1, Ephrin type-A receptor 1 (Homo sapiens) (UniProt P21709); experiment: Selectivity interaction (KinomeScan (DiscoverX)) EUB0001079a EPHA1; details: at 1 µM
T1 sequence (whole entry): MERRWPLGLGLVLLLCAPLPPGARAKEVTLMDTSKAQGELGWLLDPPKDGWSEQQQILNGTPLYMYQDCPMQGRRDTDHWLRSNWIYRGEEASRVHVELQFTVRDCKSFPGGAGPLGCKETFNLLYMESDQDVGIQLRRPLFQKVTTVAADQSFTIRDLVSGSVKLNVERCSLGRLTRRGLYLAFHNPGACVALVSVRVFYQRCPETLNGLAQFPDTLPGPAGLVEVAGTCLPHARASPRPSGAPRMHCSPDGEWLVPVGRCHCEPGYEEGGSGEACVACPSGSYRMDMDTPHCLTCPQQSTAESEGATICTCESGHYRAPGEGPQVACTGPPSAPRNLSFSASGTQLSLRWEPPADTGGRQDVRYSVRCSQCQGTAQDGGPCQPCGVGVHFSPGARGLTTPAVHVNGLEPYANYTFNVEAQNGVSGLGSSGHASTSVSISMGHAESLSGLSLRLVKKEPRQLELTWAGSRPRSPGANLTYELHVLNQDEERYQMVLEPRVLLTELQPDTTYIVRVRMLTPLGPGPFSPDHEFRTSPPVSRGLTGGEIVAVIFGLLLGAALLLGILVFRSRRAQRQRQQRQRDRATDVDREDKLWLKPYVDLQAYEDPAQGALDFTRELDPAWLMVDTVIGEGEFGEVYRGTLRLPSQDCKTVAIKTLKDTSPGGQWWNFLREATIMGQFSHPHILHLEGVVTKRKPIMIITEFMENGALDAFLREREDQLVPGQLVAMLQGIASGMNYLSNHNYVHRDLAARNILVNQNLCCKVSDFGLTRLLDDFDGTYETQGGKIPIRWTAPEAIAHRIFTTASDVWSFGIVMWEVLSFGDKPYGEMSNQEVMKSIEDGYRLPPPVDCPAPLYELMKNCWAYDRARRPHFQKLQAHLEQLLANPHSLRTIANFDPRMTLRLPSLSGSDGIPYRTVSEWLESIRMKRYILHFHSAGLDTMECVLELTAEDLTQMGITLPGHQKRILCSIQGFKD

[3] = molecular target: T2, Cyclin-dependent kinase-like 5 (Homo sapiens) (UniProt O76039); experiment: Selectivity interaction (Kinase panel (Z-LYTE Assay)) EUB0001632a CDKL5; details: at 10 µM
T2 sequence (whole entry): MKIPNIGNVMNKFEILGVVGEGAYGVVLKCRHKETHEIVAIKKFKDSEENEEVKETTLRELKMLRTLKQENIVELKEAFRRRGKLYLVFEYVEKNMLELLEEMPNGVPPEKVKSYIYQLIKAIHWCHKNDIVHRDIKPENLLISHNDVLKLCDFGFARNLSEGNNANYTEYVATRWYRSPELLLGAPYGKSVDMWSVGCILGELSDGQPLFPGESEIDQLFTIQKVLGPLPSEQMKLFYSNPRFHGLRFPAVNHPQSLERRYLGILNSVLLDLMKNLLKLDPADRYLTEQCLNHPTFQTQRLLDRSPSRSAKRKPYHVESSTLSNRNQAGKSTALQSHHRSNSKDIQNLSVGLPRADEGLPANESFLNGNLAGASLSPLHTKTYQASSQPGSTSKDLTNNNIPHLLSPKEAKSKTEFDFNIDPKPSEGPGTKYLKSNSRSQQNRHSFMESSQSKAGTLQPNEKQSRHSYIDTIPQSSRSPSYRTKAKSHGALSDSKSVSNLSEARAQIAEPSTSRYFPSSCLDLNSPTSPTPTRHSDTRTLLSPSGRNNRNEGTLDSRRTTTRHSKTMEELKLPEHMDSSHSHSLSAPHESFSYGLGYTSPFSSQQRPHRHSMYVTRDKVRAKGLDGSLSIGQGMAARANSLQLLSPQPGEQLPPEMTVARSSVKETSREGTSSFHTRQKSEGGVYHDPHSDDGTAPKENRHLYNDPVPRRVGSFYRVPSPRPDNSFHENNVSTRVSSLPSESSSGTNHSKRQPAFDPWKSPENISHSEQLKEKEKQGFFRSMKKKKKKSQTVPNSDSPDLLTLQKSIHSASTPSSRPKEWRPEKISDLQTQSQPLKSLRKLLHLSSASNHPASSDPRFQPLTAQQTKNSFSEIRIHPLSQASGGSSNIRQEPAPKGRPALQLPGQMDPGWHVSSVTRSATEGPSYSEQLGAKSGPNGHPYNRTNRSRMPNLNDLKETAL

[4] = molecular target: Myosin-IIIa (Homo sapiens) (UniProt Q8NEV4); experiment: Selectivity interaction (KinomeScan (DiscoverX)) EUB0001049a MYO3A; details: at 1 µM
Sequence of Myosin-IIIa (Homo sapiens) (Q8NEV4 whole entry): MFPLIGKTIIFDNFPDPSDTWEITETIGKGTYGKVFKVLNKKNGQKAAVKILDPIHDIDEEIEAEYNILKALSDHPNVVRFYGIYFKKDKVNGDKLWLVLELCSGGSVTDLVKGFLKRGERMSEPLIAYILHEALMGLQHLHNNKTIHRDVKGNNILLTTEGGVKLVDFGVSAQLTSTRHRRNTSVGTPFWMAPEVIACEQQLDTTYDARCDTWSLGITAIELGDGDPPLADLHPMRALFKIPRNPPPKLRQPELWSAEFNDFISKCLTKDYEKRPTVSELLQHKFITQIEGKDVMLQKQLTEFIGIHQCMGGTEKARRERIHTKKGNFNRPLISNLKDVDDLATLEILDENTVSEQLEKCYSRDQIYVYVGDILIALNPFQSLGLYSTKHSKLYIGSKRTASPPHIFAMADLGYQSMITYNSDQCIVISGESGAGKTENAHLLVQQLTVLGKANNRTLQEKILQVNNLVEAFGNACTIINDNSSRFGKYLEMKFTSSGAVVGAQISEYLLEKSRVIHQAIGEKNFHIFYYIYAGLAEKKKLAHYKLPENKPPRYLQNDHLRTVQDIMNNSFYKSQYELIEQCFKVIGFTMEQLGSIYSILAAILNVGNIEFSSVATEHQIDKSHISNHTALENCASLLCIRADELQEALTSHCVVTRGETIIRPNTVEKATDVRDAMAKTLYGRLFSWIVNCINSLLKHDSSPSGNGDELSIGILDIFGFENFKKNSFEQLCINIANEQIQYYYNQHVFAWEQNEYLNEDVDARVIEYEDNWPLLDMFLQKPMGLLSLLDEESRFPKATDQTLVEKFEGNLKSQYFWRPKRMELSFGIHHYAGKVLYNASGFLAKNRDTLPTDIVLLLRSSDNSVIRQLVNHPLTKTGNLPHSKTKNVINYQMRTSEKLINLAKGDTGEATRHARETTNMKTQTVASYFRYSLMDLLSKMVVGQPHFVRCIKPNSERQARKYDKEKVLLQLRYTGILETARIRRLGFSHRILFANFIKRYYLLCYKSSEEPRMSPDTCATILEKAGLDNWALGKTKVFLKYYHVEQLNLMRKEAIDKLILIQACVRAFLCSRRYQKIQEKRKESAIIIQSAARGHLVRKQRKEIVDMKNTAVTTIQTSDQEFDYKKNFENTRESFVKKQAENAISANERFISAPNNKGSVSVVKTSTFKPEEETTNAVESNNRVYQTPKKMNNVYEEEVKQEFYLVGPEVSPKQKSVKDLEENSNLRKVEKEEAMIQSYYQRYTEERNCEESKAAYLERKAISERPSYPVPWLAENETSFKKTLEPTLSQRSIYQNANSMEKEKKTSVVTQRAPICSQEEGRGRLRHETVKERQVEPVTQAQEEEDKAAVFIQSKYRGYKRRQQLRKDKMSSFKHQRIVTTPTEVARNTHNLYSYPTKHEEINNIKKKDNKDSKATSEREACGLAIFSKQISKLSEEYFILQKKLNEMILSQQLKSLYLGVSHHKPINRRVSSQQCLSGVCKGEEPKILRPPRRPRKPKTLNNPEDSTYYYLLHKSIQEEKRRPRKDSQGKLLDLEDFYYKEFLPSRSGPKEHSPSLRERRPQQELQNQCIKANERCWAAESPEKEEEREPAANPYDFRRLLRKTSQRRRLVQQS

[5] = molecular target: Platelet-derived growth factor receptor beta (Homo sapiens, UniProt P09619); experiment: Selectivity interaction (Upstate Kinase Profiler service (Millipore)) EUB0000056c PDGFRB; details: at 1 µM
Sequence of Platelet-derived growth factor receptor beta (P09619 whole entry): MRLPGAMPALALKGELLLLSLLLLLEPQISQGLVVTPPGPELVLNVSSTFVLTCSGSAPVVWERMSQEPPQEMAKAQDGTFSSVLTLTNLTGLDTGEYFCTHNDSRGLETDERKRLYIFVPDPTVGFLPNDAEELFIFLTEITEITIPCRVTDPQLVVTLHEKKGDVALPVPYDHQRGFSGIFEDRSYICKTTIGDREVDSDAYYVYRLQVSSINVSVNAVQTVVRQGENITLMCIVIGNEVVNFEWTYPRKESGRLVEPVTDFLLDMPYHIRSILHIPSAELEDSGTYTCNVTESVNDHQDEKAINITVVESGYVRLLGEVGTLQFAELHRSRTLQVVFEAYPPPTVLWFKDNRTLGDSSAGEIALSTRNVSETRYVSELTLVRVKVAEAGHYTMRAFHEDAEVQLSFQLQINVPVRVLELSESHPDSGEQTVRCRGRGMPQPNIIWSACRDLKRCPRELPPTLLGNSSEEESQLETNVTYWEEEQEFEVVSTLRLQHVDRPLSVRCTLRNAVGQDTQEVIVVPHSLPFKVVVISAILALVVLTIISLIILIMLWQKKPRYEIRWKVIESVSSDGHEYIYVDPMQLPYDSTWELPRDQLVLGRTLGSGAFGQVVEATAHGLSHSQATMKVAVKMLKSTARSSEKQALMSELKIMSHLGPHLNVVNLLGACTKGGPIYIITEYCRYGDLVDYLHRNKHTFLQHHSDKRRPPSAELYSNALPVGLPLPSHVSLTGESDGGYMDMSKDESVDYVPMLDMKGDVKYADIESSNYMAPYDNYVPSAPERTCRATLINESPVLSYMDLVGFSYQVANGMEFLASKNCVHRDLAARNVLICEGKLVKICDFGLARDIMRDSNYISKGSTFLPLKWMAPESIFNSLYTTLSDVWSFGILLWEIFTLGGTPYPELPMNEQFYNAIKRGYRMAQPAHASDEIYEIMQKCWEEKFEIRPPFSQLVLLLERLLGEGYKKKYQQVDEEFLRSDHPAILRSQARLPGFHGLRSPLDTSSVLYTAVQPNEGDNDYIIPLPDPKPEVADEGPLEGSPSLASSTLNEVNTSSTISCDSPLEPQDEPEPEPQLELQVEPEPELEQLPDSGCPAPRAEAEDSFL

[6] = molecular target: T3, TGF-beta receptor type-1 (Homo sapiens) (UniProt P36897); experiment: Selectivity interaction (KinomeScan (DiscoverX)) EUB0000618a TGFBR1; details: at 10 µM
T3 sequence (whole entry): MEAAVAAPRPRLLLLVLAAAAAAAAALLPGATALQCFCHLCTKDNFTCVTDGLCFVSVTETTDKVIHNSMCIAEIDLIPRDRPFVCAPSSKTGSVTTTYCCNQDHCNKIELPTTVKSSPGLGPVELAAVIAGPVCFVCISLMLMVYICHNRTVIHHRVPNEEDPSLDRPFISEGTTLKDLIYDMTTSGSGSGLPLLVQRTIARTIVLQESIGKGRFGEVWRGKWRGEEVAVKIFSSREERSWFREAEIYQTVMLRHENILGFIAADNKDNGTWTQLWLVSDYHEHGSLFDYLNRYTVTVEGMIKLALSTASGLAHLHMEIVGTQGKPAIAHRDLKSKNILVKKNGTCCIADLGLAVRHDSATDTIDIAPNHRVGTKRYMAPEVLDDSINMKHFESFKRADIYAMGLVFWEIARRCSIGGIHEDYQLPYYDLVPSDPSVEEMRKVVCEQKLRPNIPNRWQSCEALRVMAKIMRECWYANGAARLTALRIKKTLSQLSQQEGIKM

[7] = molecular target: Fibroblast growth factor receptor 3 (Homo sapiens, UniProt P22607); experiment: Selectivity interaction (KinomeScan (DiscoverX)) EUB0000092b FGFR3; details: at 10 µM
Sequence of Fibroblast growth factor receptor 3 (P22607 23-806 limits assumed): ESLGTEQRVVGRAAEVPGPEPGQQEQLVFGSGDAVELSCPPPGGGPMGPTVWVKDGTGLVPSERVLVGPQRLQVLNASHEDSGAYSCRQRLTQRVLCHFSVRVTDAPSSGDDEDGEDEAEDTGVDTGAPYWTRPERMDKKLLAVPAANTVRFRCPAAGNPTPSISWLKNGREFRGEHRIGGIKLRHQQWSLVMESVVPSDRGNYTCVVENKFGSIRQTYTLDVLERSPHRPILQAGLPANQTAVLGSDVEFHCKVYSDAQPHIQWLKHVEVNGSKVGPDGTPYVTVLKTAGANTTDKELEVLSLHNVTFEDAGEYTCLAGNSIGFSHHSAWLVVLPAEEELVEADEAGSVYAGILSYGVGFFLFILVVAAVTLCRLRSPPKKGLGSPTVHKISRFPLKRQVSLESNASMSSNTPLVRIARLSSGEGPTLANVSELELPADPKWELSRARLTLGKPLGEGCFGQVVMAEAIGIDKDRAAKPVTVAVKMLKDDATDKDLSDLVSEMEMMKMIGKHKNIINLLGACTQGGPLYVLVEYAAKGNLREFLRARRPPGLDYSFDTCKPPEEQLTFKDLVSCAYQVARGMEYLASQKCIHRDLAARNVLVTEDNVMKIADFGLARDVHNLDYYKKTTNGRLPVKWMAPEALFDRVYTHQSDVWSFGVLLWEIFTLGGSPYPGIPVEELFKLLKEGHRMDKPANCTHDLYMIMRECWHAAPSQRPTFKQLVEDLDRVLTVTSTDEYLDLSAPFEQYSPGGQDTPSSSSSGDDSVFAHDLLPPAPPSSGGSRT

Sequence of Tyrosine-protein kinase Blk (Homo sapiens) (P51451 2-505 limits assumed): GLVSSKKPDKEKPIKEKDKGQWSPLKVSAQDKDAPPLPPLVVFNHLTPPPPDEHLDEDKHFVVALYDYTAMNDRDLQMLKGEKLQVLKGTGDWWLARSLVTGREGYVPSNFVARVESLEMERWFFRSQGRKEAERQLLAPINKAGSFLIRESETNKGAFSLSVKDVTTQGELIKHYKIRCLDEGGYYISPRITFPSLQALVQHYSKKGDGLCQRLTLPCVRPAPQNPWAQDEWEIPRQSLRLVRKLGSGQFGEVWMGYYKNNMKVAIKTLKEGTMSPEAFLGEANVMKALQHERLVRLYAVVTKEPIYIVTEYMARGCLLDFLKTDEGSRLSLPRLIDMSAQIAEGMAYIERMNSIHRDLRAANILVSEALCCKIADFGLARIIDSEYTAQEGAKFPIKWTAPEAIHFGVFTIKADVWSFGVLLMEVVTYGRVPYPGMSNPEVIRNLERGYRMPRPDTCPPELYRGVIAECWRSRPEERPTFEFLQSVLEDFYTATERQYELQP

Structure (SMILES): COCC(=O)NC/C=C/c1ccc2ncnc(Nc3ccc(Oc4ccc(C)nc4)c(C)c3)c2c1 [CP-724714]
- % of control [1]: 62%

Structure (SMILES): Nc1cnc(N2CCc3cc(S(=O)(=O)Nc4c(F)cc(Cl)cc4F)cc(N4CCCC4=O)c32)nc1 [TP-020n]
- % of control [2]: 99%

Structure (SMILES): Cn1cc(-n2cnc3c(NCc4nc5cc(Cl)c(Cl)cc5[nH]4)nc(N4CCOCC4)nc32)cn1
- % of control [3]: 4.16%

Structure (SMILES): COc1cc(Nc2nc(C)cc(-c3cnn4nc(OC)ccc34)n2)cc(C(F)(F)F)c1
- % of control [4]: 87%

Structure (SMILES): Cc1ccc(-c2ccc3c(ccc4sc5c(c43)NC[C@@H](C)NC5=O)n2)cn1
- % of inhibition [5]: -4%

Structure (SMILES): O[C@H]1CC[C@H](Nc2ncc3nc(Nc4c(F)cc(F)cc4F)n([C@H]4CCOC4)c3n2)CC1
- % of control [6]: 100%

Structure (SMILES): CCC(=O)N1CCN(c2ccc(-n3c(=O)ccc4cnc5ccc(-c6cnc7ccccc7c6)cc5c43)cc2C(F)(F)F)CC1
- % of control [7]: 42%
